Data: patent US7550469B2, “Heterocyclic amide derivatives and their use as dopamine D3 receptor ligands” (Aventis Pharmaceuticals Inc., priority 2001, dated 2009)
Read-outs that look alike come from different tables or passages of the source.

Molecular target: T1, cloned human dopamine D3 receptors (Homo sapiens, UniProt P35462)
T1 construct: expressed in transfected cells; membrane homogenate
Assay: [N-Methyl-3H]Spiroperidol binding to cloned human dopamine D3 receptors (Protocol 1)
Method in brief: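 Radioligand displacement with [N-methyl-3H]spiroperidol used a physiological-salt Tris buffer (0.05 M, pH 7.7; NaCl 120 mM, KCl 5 mM, CaCl2 2 mM, MgCl2 1 mM) and membranes of a high-expressing stable CHO clone carrying human D3. Total ligand concentration came from measured added CPM; 0.1% ascorbic acid was optional for oxidizable compounds.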

[1] = the 15th table, read-out: D3 Ki
[2] = the 19th table, read-out: D3 Ki
[3] = the 13th table, unit inferred, read-out: D3Ki
[4] = the 14th table, read-out: D3 Ki
[5] = the 21st table, read-out: D3 Ki
[6] = the 16th table, read-out: D3 Ki
[7] = the 23rd table, read-out: D3 Ki

T1 sequence (P35462 whole entry): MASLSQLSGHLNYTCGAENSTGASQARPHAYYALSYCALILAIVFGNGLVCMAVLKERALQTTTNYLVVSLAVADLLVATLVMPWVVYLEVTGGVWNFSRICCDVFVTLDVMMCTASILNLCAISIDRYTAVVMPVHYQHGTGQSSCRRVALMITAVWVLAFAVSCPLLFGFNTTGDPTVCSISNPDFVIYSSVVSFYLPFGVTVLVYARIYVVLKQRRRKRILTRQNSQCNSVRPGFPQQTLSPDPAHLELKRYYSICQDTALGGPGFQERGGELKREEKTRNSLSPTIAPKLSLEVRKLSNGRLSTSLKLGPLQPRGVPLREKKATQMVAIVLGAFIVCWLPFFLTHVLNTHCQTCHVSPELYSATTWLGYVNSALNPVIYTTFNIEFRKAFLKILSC

O=C(NCCCCN1C2CCC1CC(c1noc3ccccc13)C2)c1ccc(-c2ccccc2)cc1 (stereo not drawn) [compound 816532]
Ki [1]: 56.8 nM

Cc1ccccc1C(=O)Nc1cccc(CN2CCN(c3csc4cc(F)ccc34)CC2)c1 [compound 822183]
Ki [2]: 154 nM

Cc1nn(-c2ccccc2)nc1C(=O)NCCCCN1CCCN(c2csc3cc(C(F)(F)F)ccc23)CC1 [S980657]
Ki [3]: 175 nM

O=C(NCCCCCCN1CCN(c2csc3cc(C(F)(F)F)ccc23)CC1)c1cccc2[nH]ccc12 [compound 826741]
Ki (read-out: D3K1): 9.8 nM
Ki [4]: 9.8 nM

C[C@@H]1CN(c2csc3cc(C(F)(F)F)ccc23)C[C@H](C)N1CCCCNC(=O)c1ccc2cc[nH]c2c1 [compound 826955]
Ki [5]: 70.5 nM

O=C(Cc1cccs1)NCCCCN1C2CCC1CC(c1noc3ccccc13)C2 (stereo not drawn) [compound 816521]
Ki [1]: 328 nM

O=C(NCCCN1CCCN(c2csc3cc(F)ccc23)CC1)c1cccs1 [compound 827134]
Ki (Table 2, read-out: D3K1): 62 nM
Ki [6]: 62 nM

C[C@@H]1CN(c2csc3cc(C(F)(F)F)ccc23)C[C@H](C)N1CCCCNC(=O)c1ccc(C(C)(C)C)cc1 [compound 826934]
Ki [5]: 227 nM

O=C(Nc1cccc(CN2CCN(c3csc4cc(F)ccc34)CC2)c1)c1cnc2ccccc2n1 [compound 822184]
Ki [2]: 271 nM

O=S(=O)(CCc1cccc2ccccc12)NCC1CC1CN1CCN(c2csc3cc(C(F)(F)F)ccc23)CC1 (stereo not drawn) [compound 831910]
Ki (the 24th table, read-out: D3 Ki): 277 nM

FC(F)(F)c1ccc2c(N3CCN(C[C@@H]4C[C@H]4CNCCCn4ccnc4)CC3)csc2c1 [compound 833257, (3-imidazol-1-yl-propyl)-{(1R,2R)-2-[4-(6-trifluoromethyl-benzo[b]thiophen-3-yl)-piperazin-1-ylmethyl]-cyclopropylmethyl}-amine]
Ki [7]: 2.62 nM

COc1cccc(C(=O)NCCCCN2CCCN(c3csc4cc(F)ccc34)CC2)c1 [compound 822197]
Ki [3]: 6.5 nM

COc1cccc2c(C3CCN(C[C@@H]4C[C@H]4CN[C@H]4CC[C@H](C)CC4)CC3)noc12 [compound 833329]
Ki [7]: 31.9 nM

O=C(NCCCCN1CCCN(c2csc3cc(F)ccc23)CC1)c1cc(F)cc(F)c1 [S981849]
Ki [3]: 5.03 nM

O=C(NCCCCCN1CCCN(c2csc3cc(F)ccc23)CC1)c1cc2sccc2s1 [S984502]
Ki [3]: 6.41 nM

C[C@@H]1CN(c2csc3cc(C(F)(F)F)ccc23)C[C@H](C)N1CCCCNC(=O)c1cc2ccccc2o1 [compound 826958]
Ki [5]: 148 nM

O=C(N[C@H](CO)CCCN1CCN(c2csc3cc(C(F)(F)F)ccc23)CC1)c1ccco1 [compound 815696]
Ki (Table 2, read-out: D3K1): 871 nM
Ki (read-out: D3K1): 871 nM
Ki [4]: 871 nM

O=C(NCCCCN1CCN(c2noc3ccsc23)CC1)c1cccc(C(F)(F)F)c1 [compound 829673]
Ki (the 22nd table, read-out: D3 Ki): 515 nM

O=C(NCCCCCN1CCC(c2noc3ccsc23)CC1)c1ccc(Cl)cc1 [compound 816199]
Ki [3]: 157 nM

O=C(NCCCCCN1CCN(c2csc3cc(C(F)(F)F)ccc23)CC1)c1ccc2cc[nH]c2c1 [compound 826800]
Ki (read-out: D3K1): 27.2 nM
Ki [4]: 27.2 nM

O=C(Nc1cccc(CN2CCN(c3csc4cc(F)ccc34)CC2)c1)c1cccs1 [compound 822159]
Ki [2]: 96.7 nM

O=C(NCCCCN1CCN(c2c(Cl)sc3cc(F)ccc23)CC1)c1ccc(Cl)cc1 [compound 815060]
Ki (read-out: D3K1): 6.2 nM

O=C(NC(CO)CCCN1CCN(c2csc3cc(C(F)(F)F)ccc23)CC1)c1ccccc1C(F)(F)F (stereo not drawn) [compound 815688]
Ki (Table 2, read-out: D3K1): 190 nM
Ki (read-out: D3K1): 190 nM
Ki [4]: 190 nM

CC1(C)C(CNC(=O)c2cccs2)C1CN1CCN(c2csc3cc(C(F)(F)F)ccc23)CC1 (stereo not drawn) [compound 826276]
Ki (read-out: D3K1): 58 nM

O=C(COCc1ccccc1)NC/C=C\CN1CCN(c2csc3cc(C(F)(F)F)ccc23)CC1 [compound 826349]
Ki (read-out: D3K1): 180 nM

O=C(NCCCCN1CCN(c2c(-c3ccccc3)sc3cc(F)ccc23)CC1)c1cc2ccccc2s1 [compound 815873]
Ki (Table 2, read-out: D3K1): 263 nM

O=C(NCC(CO)CCN1CCN(c2csc3cc(C(F)(F)F)ccc23)CC1)c1ccc2ncccc2c1 (stereo not drawn) [818938ES]
Ki (Table 2, read-out: D3K1): 141 nM

O=C(NCCCCN1CCCN(c2csc3cc(F)ccc23)CC1)c1c2ccccc2cc2ccccc12 [compound 826762]
Ki (Table 2, read-out: D3K1): 57 nM
Ki [6]: 57 nM

Cc1nnsc1C(=O)NCCCCN1CCCN(c2csc3cc(C(F)(F)F)ccc23)CC1 [S980660]
Ki [3]: 43.8 nM

COc1ccc(C(=O)N[C@H](CO)CCCN2CCN(c3csc4cc(C(F)(F)F)ccc34)CC2)cc1 [compound 815692]
Ki (Table 2, read-out: D3K1): 191 nM
Ki (read-out: D3K1): 191 nM
Ki [4]: 191 nM

COc1ccccc1C(=O)NCCCCN1CCCN(c2csc3cc(C(F)(F)F)ccc23)CC1 [S980634]
Ki [3]: 14 nM

O=C(NCCCCCN1CCC(c2noc3ccsc23)CC1)c1ccc(-c2ccccc2)cc1 [compound 816208]
Ki [3]: 84.9 nM

O=C(NCCCCCN1CCC(c2noc3ccsc23)CC1)c1ccc(F)cc1 [compound 816217]
Ki [3]: 364 nM

COc1ccc2[nH]c(C(=O)NCCCCCCN3CCN(c4csc5cc(C(F)(F)F)ccc45)CC3)cc2c1 [compound 826738]
Ki (read-out: D3K1): 6.1 nM
Ki [4]: 6.1 nM
